The record followed here is ChEMBL document CHEMBL1201862, “PubChem BioAssay data set” (2004).

Structures are written as SMILES. Active and inactive are the calls of the source. Where only a bound is given, the exact number is not on record here.

Experiment [1] has as its target SUMO-activating enzyme (Homo sapiens, UniProt Q9UBT2). The experiment is described as follows: blockers of SAE1/SAE2–UBC9 SUMO transfer – biochemical, HTRF, uHTS, primary screen (AID 2006). Type of experiment: protein-complex assay.
Experiment [2] addresses T1, Sentrin-specific protease 6 (Homo sapiens, UniProt Q9GZR1).
T1 sequence (Q9GZR1 whole entry): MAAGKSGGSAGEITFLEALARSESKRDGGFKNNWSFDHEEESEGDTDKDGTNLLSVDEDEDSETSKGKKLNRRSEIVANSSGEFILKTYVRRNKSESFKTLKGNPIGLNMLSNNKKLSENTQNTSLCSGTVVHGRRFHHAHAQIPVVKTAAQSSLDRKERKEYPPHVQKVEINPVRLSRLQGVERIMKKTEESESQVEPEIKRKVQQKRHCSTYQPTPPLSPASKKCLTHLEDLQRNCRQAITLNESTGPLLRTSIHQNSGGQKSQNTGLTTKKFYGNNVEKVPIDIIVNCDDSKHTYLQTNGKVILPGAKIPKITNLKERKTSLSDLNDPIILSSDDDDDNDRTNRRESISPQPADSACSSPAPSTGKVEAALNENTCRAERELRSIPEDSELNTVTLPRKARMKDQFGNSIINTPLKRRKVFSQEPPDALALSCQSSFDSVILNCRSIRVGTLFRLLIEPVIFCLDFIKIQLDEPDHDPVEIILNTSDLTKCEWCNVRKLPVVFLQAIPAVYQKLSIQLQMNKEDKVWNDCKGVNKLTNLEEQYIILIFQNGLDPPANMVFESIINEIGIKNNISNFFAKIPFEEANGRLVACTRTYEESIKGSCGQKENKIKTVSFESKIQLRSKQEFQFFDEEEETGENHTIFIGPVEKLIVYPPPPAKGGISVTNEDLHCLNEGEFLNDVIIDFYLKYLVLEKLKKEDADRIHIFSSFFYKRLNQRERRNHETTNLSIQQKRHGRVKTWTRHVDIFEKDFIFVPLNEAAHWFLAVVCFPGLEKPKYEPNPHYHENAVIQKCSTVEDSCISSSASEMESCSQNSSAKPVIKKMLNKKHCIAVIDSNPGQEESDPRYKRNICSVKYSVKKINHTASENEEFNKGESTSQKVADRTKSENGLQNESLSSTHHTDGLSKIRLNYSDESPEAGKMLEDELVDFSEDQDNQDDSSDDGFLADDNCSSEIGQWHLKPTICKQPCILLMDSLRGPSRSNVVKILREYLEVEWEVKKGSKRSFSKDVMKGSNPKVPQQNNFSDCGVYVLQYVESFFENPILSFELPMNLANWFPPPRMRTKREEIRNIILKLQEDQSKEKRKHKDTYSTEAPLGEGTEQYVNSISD
Type of experiment: functional.

For experiment [3], the target named is T2, Apoptotic protease-activating factor 1 (Homo sapiens, UniProt O14727).
T2 sequence (O14727 whole entry): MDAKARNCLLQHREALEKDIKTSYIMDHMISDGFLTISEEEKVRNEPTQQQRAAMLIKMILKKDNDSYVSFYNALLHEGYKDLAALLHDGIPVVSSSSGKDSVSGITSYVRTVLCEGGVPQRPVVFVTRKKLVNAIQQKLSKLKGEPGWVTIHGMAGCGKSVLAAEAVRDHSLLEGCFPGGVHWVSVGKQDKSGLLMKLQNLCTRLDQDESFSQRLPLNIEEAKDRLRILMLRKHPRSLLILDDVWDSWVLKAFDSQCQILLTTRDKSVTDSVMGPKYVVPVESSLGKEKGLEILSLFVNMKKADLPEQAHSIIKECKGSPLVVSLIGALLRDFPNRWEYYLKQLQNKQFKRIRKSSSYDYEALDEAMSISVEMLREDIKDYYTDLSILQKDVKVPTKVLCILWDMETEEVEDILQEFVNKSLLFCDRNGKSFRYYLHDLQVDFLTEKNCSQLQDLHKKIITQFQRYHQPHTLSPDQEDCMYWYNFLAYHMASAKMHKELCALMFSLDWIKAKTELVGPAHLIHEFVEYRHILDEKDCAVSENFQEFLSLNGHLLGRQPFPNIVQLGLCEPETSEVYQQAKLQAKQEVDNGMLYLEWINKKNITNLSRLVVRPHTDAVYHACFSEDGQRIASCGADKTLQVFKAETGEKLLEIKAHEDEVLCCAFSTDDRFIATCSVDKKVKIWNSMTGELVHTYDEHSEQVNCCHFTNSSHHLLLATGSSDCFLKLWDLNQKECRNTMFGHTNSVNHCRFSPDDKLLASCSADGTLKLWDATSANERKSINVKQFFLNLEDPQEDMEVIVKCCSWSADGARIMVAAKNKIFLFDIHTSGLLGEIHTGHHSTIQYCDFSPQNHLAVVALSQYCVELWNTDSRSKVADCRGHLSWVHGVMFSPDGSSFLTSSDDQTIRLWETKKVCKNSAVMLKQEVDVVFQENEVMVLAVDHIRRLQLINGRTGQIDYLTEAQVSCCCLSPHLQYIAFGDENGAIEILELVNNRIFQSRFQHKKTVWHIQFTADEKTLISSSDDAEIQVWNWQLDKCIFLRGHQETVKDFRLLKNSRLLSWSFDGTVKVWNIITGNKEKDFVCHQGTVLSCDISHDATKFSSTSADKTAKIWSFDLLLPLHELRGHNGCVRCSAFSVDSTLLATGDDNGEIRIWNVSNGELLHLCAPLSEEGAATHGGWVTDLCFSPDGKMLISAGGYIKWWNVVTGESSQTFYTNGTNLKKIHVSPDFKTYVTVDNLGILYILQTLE
Type of experiment: functional.

The test system of experiment [4] is HEK293. Briefly: membrane integrity loss in HEK cells – cell-based, fluorescence, cytotoxicity control for IDE activator project, dose response (AID 588440).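 Note: cytotoxicity by LDH release measuring loss of membrane integrity.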 It is filed as functional. The note with it: Homo sapiens.
Experiment [5] concerns HEK293. Briefly: optical interference in Abeta FP readout, dose response, artefact control for IDE activator project, biochemical, fluorescence polarization (AID 588442). Type of experiment: functional, cell-based. The settings on record: Homo sapiens.
Experiment [6] addresses Tyrosine-protein kinase JAK2 (Homo sapiens, UniProt O60674). It is filed as functional.
Experiment [7] deals with Serine/threonine-protein kinase PAK 4 (Homo sapiens, UniProt O96013). It is filed as functional.
Chain of Serine/threonine-protein kinase PAK 4 (O96013 whole entry): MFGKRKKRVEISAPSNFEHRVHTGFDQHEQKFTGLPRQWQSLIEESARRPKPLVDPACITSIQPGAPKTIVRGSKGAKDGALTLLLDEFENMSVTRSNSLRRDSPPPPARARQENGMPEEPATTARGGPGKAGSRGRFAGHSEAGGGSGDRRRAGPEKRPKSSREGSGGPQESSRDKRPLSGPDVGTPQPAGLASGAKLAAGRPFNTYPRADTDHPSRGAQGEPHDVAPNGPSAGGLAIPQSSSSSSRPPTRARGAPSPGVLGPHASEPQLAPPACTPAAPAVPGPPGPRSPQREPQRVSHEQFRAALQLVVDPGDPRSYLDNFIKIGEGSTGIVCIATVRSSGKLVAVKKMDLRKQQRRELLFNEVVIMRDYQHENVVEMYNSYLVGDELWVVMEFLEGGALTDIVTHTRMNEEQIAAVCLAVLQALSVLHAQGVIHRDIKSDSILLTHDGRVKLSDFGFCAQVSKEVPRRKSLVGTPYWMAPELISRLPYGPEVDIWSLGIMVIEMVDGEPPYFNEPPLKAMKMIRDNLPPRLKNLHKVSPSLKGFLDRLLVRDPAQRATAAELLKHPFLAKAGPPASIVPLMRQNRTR
Experiment [8] has as its target Activated CDC42 kinase 1 (Homo sapiens, UniProt Q07912). Briefly: Navigating the Kinome. Panel member name: ACK1. It is filed as functional.
The target of experiment [9] is Fibroblast growth factor receptor 1 (Homo sapiens, UniProt P11362). It is filed as functional.
Chain of Fibroblast growth factor receptor 1 (P11362 whole entry): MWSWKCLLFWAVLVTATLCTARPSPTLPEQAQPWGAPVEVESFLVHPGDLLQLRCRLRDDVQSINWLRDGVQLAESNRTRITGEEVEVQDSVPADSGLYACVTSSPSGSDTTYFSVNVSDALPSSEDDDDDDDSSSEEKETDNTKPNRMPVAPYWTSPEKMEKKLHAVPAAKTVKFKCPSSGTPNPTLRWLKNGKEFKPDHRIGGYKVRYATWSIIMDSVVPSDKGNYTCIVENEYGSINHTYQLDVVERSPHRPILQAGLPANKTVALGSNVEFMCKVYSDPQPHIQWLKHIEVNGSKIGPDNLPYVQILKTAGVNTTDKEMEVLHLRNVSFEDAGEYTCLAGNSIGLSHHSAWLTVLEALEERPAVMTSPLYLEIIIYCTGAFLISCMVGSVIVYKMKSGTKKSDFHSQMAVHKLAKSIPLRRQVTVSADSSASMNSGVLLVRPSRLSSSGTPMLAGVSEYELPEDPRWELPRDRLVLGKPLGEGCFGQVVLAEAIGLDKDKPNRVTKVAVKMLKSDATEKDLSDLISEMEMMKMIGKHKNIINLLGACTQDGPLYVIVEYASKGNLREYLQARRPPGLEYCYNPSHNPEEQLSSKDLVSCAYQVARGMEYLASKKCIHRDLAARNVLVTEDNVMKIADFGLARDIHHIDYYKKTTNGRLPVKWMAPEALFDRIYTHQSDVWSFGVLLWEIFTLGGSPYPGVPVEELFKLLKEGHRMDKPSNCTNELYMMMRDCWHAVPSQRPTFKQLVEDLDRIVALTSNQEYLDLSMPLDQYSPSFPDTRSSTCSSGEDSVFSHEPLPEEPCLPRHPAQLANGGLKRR
For experiment [10], the target named is Serine/threonine-protein kinase TAO1 (Homo sapiens, UniProt Q7L7X3). Type of experiment: functional.

Chain of SUMO-activating enzyme (Q9UBE0 whole entry): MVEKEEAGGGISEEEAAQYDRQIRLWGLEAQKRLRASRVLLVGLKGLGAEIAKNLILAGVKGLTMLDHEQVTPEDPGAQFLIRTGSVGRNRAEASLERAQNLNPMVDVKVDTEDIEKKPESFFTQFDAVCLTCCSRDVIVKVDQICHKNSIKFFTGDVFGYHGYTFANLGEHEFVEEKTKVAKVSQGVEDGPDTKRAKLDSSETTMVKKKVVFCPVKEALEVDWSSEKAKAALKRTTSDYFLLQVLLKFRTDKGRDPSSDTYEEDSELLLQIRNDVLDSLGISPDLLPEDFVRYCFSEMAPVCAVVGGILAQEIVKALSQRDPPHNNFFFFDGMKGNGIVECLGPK
Chain of SUMO-activating enzyme (Q9UBT2 whole entry): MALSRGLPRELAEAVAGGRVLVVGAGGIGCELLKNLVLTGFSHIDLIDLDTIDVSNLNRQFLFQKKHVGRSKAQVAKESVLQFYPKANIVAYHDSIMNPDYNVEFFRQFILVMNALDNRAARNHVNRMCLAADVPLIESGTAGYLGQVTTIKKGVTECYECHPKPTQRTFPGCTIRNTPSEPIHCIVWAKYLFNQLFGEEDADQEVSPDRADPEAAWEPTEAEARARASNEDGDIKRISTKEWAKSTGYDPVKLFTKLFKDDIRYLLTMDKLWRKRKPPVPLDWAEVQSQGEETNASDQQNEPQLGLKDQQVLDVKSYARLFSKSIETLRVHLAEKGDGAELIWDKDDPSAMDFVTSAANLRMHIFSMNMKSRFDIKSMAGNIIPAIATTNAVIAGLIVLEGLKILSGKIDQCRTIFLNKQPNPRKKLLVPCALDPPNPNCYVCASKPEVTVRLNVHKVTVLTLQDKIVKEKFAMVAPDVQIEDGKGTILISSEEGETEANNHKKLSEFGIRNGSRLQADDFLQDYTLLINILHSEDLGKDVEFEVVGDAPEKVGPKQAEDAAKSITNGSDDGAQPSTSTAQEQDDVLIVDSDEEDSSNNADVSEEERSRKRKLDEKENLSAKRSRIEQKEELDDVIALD
Chain of Activated CDC42 kinase 1 (Q07912 whole entry): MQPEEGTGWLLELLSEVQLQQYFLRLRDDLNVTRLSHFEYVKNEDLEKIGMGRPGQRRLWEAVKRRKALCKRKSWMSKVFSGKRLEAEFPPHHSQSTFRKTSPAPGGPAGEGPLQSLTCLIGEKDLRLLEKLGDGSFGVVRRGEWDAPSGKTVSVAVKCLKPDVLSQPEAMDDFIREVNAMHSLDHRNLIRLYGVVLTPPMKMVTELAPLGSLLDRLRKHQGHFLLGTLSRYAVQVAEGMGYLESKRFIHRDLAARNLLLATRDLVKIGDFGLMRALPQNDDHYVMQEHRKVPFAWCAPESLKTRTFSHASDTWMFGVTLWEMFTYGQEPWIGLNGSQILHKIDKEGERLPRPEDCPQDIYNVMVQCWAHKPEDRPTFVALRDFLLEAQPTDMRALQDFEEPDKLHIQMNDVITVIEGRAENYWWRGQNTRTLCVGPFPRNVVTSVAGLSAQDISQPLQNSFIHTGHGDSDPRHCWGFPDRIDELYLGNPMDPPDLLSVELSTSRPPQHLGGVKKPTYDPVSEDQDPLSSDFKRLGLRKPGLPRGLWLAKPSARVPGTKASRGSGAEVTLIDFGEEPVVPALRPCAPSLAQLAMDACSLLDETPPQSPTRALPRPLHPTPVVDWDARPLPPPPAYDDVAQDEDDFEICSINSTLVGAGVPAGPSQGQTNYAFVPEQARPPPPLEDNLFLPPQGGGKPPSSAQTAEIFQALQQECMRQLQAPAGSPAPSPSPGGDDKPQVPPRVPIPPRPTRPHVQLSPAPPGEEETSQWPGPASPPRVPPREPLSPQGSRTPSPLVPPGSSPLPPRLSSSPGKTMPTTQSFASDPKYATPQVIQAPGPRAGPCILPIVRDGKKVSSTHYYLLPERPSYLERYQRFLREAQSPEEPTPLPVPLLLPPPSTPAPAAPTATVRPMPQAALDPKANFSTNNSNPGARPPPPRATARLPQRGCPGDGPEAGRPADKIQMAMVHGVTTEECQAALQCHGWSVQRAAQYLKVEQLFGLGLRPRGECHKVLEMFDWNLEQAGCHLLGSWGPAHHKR
Chain of Tyrosine-protein kinase JAK2 (O60674 whole entry): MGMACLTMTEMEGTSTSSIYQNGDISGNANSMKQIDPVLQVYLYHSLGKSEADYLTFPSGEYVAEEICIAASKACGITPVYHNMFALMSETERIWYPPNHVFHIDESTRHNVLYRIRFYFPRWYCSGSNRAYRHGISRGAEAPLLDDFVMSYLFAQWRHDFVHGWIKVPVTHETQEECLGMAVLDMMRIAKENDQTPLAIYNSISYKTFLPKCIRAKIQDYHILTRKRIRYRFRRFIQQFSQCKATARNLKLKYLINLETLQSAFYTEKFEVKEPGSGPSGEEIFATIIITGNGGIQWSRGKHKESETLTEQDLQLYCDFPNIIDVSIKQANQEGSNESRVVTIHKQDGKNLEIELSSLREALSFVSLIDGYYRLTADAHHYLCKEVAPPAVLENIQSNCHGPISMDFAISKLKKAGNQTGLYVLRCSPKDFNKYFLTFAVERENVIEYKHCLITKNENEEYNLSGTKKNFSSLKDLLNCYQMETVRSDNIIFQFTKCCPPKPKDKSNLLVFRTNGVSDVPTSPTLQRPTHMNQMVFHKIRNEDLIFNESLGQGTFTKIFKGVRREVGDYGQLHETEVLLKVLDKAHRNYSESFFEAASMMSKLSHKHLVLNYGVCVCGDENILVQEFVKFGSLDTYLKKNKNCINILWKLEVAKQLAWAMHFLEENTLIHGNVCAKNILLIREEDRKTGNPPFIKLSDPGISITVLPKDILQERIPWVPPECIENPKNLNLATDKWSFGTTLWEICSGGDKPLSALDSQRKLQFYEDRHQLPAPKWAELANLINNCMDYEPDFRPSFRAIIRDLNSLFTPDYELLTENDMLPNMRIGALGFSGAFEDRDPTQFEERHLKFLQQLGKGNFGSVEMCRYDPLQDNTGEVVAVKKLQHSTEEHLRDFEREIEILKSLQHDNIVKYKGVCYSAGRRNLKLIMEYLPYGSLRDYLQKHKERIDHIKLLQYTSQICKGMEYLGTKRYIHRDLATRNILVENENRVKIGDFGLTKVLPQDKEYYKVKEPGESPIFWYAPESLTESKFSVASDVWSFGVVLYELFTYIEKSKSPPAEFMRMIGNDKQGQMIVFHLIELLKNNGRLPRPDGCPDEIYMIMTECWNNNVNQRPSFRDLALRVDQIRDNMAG

With `O=C(NNc1cc(N2CCCC2)nc(N2CCCC2)n1)c1ccc([N+](=O)[O-])cc1`, the IC50 is 5.63 µM (active) in experiment [1], 1.81 µM (active) in experiment [2] and 11.9 µM (active) in experiment [3].
As for `O=S(=O)(O)c1cccc2c(N=Nc3ccc(O)c4ncccc34)cccc12`, the IC50 in experiment [4] was > 89.3 µM (inactive). The EC50 in experiment [5] is 5.53 µM (active).
As for `O=C(Cc1cccs1)Nc1nc2ccccc2s1`, the Ki in [6] is > 2.51 µM (inactive); in [7], > 5.01 µM (inactive); in experiment [8] it was > 3.98 µM (inactive); in experiment [9] it was 0.631 µM (active); in experiment [10], 6.31 µM (active).
